Experimental data taken from patent US7514443B2, “Substituted pyrazolo[1,5-a]pyrimidines as inhibitors of metabotropic glutamate receptors” (Hoffmann-La Roche Inc., priority 2003, dated 2009).

melting point [°C]	SMILES
188	FC(F)(F)c1cc(-c2ccc(Cl)c(Cl)c2)nc2c(-c3ccccn3)cnn12 [Example 4.11, 5-(3,4-Dichloro-phenyl)-3-pyridin-2-yl-7-trifluoromethyl-pyrazolo[1,5-a]pyrimidine]
237	Cc1cc(-c2cnn3c(C(F)(F)F)cc(-c4ccc(C(F)(F)F)c(C)c4)nc23)ccn1 [Example 4.39, 5-(3-Methyl-4-trifluoromethyl-phenyl)-3-(2-methyl-pyridin-4-yl)-7-trifluoromethyl-pyrazolo[1,5-a]pyrimidine]
249	Cc1cc(-c2ncn3c(C(F)(F)F)cc(-c4ccc(Br)cc4)nc23)ccn1 [Example 8.36, 2-(4-Bromo-phenyl)-8-(2-methyl-pyridin-4-yl)-4-trifluoromethyl-imidazo[1,5-a]pyrimidine]
197	Fc1ccc(-c2cc(C(F)(F)F)n3ncc(-c4ccccn4)c3n2)cc1Cl [Example 4.8, 5-(3-Chloro-4-fluoro-phenyl)-3-pyridin-2-yl-7-trifluoromethyl-pyrazolo[1,5-a]pyrimidine]
208	N#Cc1cnn2c(C(F)(F)F)cc(-c3ccccn3)nc12 [Example 1.20, 5-Pyridin-2-yl-7-trifluoromethyl-pyrazolo[1,5-a]pyrimidine-3-carbonitrile]
232	Cc1cc(-c2ncn3c(C(F)(F)F)cc(-c4ccc(Cl)cc4)nc23)ccn1 [Example 8.20, 2-(4-Chloro-phenyl)-8-(2-methyl-pyridin-4-yl)-4-trifluoromethyl-imidazo[1,5-a]pyrimidine]
162	Fc1cc(-c2cc(C(F)(F)F)n3ncc(-c4cccnc4)c3n2)ccc1C(F)(F)F [Example 4.18, 5-(3-Fluoro-4-trifluoromethyl-phenyl)-3-pyridin-3-yl-7-trifluoromethyl-pyrazolo[1,5-a]pyrimidine]
205	N#Cc1ncn2c(C(F)(F)F)cc(-c3ccccn3)nc12 [Example 5.25, 2-Pyridin-2-yl-4-trifluoromethyl-imidazo[1,5-a]pyrimidine-8-carbonitrile]
233	OCc1cc(-c2cnn3c(C(F)(F)F)cc(-c4ccc(Cl)c(Cl)c4)nc23)ccn1 [Example 6.4, {4-[5-(3,4-Dichloro-phenyl)-7-trifluoromethyl-pyrazolo[1,5-a]pyrimidin-3-yl]-pyridin-2-yl}-methanol]
271	Cc1cc(-c2cnn3c(C(F)(F)F)cc(-c4ccc(F)c(Cl)c4)nc23)cc(C)n1 [Example 4.21, 5-(3-Chloro-4-fluoro-phenyl)-3-(2,6-dimethyl-pyridin-4-yl)-7-trifluoromethyl-pyrazolo[1,5-a]pyrimidine]
149	N#Cc1cnn2c(C(F)(F)F)cc(-c3ccc(F)cc3F)nc12 [Example 1.10, 5-(2,4-Difluoro-phenyl)-7-trifluoromethyl-pyrazolo[1,5-a]pyrimidine-3-carbonitrile]
289	FC(F)(F)c1cc(-c2ccc(Br)cc2)nc2c(-c3ccncc3)cnn12 [Example 4.55, 5-(4-Bromo-phenyl)-3-pyridin-4-yl-7-trifluoromethyl-pyrazolo[1,5-a]pyrimidine]
245	Cc1cc(-c2cnn3c(C(F)(F)F)cc(-c4ccc(C(F)(F)F)c(F)c4)nc23)cc(C)n1 [Example 4.25, 5-(3-Fluoro-4-trifluoromethyl-phenyl)-3-(2,6-dimethyl-pyridin-4-yl)-7-trifluoromethyl-pyrazolo[1,5-a]pyrimidine]
281	Cc1cc(-c2cnn3c(C(F)(F)F)cc(-c4ccc(Cl)c(Cl)c4)nc23)cc(C)n1 [Example 4.22, 5-(3,4-Dichloro-phenyl)-3-(2,6-dimethyl-pyridin-4-yl)-7-trifluoromethyl-pyrazolo[1,5-a]pyrimidine]
196	Cc1nn2c(C(F)(F)F)cc(-c3ccc(F)c(Cl)c3)nc2c1C#N [Example 2.4, 5-(3-Chloro-4-fluoro-phenyl)-2-methyl-7-trifluoromethyl-pyrazolo[1,5-a]pyrimidine-3-carbonitrile]
182	Cc1ccc(-c2cc(C(F)(F)F)n3ncc(-c4cccnc4)c3n2)cc1C(F)(F)F [Example 4.26, 5-(4-Methyl-3-trifluoromethyl-phenyl)-3-pyridin-3-yl-7-trifluoromethyl-pyrazolo[1,5-a]pyrimidine]
245	Cc1cc(-c2cnn3c(C(F)(F)F)cc(-c4ccc(C(F)(F)F)c(OCC(F)(F)F)c4)nc23)cc(C)n1 [Example 4.51, 3-(2,6-Dimethyl-pyridin-4-yl)-5-[3-(2,2,2-trifluoro-ethoxy)-4-trifluoromethyl-phenyl]-7-trifluoromethyl-pyrazolo[1,5-a]pyrimidine]
292	Cc1cc(-c2cnn3c(C(F)(F)F)cc(-c4ccc(F)c(Cl)c4)nc23)ccn1 [Example 4.31, 5-(3-Chloro-4-fluoro-phenyl)-3-(2-methyl-pyridin-4-yl)-7-trifluoromethyl-pyrazolo[1,5-a]pyrimidine]
233	CCOc1ccc(-c2cc(C(F)(F)F)n3ncc(-c4ccncc4)c3n2)cc1C(F)(F)F [Example 4.41, 5-(4-Ethoxy-3-trifluoromethyl-phenyl)-3-pyridin-4-yl-7-trifluoromethyl-pyrazolo[1,5-a]pyrimidine]

melting point [°C]	SMILES
192	N#Cc1cnn2c(C(F)(F)F)cc(-c3cccc(C(F)(F)F)c3)nc12 [Example 1.6, 5-(3-Trifluoromethyl-phenyl)-7-trifluoromethyl-pyrazolo[1,5-a]pyrimidine-3-carbonitrile]
244	CCOc1ccc(-c2cc(C(F)(F)F)n3cnc(-c4ccncc4)c3n2)cc1C(F)(F)F [Example 8.17, 2-(4-Ethoxy-3-trifluoromethyl-phenyl)-8-pyridin-4-yl-4-trifluoromethyl-imidazo[1,5-a]pyrimidine]
188	Fc1ccc(-c2cc(C(F)(F)F)n3cnc(-c4cccnc4)c3n2)cc1Cl [Example 8.3, 2-(3-Chloro-4-fluoro-phenyl)-8-pyridin-3-yl-4-trifluoromethyl-imidazo[1,5-a]pyrimidine]
251	FC(F)(F)COc1cc(-c2cc(C(F)(F)F)n3ncc(-c4ccncc4)c3n2)ccc1C(F)(F)F [Example 4.50, 3-Pyridin-4-yl-5-[3-(2,2,2-trifluoro-ethoxy)-4-trifluoromethyl-phenyl]-7-trifluoromethyl-pyrazolo[1,5-a]pyrimidine]
189	Cc1cc(-c2ncn3c(C(F)(F)F)cc(-c4ccc(C(F)(F)F)c(OCC(F)(F)F)c4)nc23)ccn1 [Example 8.33, 8-(2-Methyl-pyridin-4-yl)-2-[3-(2,2,2-trifluoro-ethoxy)-4-trifluoromethyl-phenyl]-4-trifluoromethyl-imidazo[1,5-a]pyrimidine]
184	N#Cc1cnn2c(C(F)(F)F)cc(-c3ccc(C(F)(F)F)c(F)c3)nc12 [Example 1.17, 5-(3-Fluoro-4-trifluoromethyl-phenyl)-7-trifluoromethyl-pyrazolo[1,5-a]pyrimidine-3-carbonitrile]
206	COc1ccc(-c2cc(C(F)F)n3ncc(-c4ccncc4)c3n2)cc1 [Example 9.5, 7-Difluoromethyl-5-(4-methoxy-phenyl)-3-pyridin-4-yl-pyrazolo[1,5-a]pyrimidine]
260	FC(F)(F)c1cc(-c2ccc(Cl)c(Cl)c2)nc2c(-c3ccncc3)cnn12 [Example 4.10, 5-(3,4-Dichloro-phenyl)-3-pyridin-4-yl-7-trifluoromethyl-pyrazolo[1,5-a]pyrimidine]
254	N#Cc1ncn2c(C(F)(F)F)cc(-c3ccncc3)nc12 [Example 5.27, 2-Pyridin-4-yl-4-trifluoromethyl-imidazo[1,5-a]pyrimidine-8-carbonitrile]
151	Cc1ccccc1-c1cc(C(F)(F)F)n2cnc(C#N)c2n1 [Example 5.8, 2-(2-Methyl-phenyl)-4-trifluoromethyl-imidazo[1,5-a]pyrimidine-8-carbonitrile]
261	FC(F)(F)c1ccc(-c2cc(C(F)(F)F)n3ncc(-c4ccncc4)c3n2)cc1 [Example 4.15, 5-(4-Trifluoromethyl-phenyl)-3-pyridin-4-yl-7-trifluoromethyl-pyrazolo[1,5-a]pyrimidine]
256	Cc1cc(-c2cnn3c(C(F)(F)F)cc(-c4ccc(Cl)cc4)nc23)cc(C)n1 [Example 4.19, 5-(4-Chloro-phenyl)-3-(2,6-dimethyl-pyridin-4-yl)-7-trifluoromethyl-pyrazolo[1,5-a]pyrimidine]
267	Fc1cc(-c2cc(C(F)(F)F)n3cnc(-c4ccncc4)c3n2)ccc1C(F)(F)F [Example 8.15, 2-(3-Fluoro-4-trifluoromethyl-phenyl)-8-pyridin-4-yl-4-trifluoromethyl-imidazo[1,5-a]pyrimidine]
275	Cc1cc(-c2cnn3c(C(F)(F)F)cc(-c4ccc(Cl)c(Cl)c4)nc23)ccn1 [Example 4.32, 5-(3,4-Dichloro-phenyl)-3-(2-methyl-pyridin-4-yl)-7-trifluoromethyl-pyrazolo[1,5-a]pyrimidine]
221	N#Cc1ncn2c(C(F)(F)F)cc(-c3cccc(Cl)c3)nc12 [Example 5.3, 2-(3-Chloro-phenyl)-4-trifluoromethyl-imidazo[1,5-a]pyrimidine-8-carbonitrile]
193	N#Cc1cnn2c(C(F)(F)F)cc(-c3cccnc3)nc12 [Example 1.21, 5-Pyridin-3-yl-7-trifluoromethyl-pyrazolo[1,5-a]pyrimidine-3-carbonitrile]
183	Cc1cc(-c2cc(C(F)(F)F)n3ncc(-c4ccccn4)c3n2)ccc1Cl [Example 4.5, 5-(4-Chloro-3-methyl-phenyl)-3-pyridin-2-yl-7-trifluoromethyl-pyrazolo[1,5-a]pyrimidine]
220	Cc1cc(-c2cnn3c(C(F)(F)F)cc(-c4ccc(Cl)cc4)nc23)ccn1 [Example 4.29, 5-(4-Chloro-phenyl)-3-(2-methyl-pyridin-4-yl)-7-trifluoromethyl-pyrazolo[1,5-a]pyrimidine]
202	Cc1cccc(-c2cc(C(F)(F)F)n3cnc(C#N)c3n2)c1 [Example 5.9, 2-(3-Methyl-phenyl)-4-trifluoromethyl-imidazo[1,5-a]pyrimidine-8-carbonitrile]
